Measurements from patent US5707855A (priority 1996, dated 1998).
Converted amounts (≈) assume the structure as drawn.

How the values were obtained:
[1] = MICs of common antibiotics in the presence of sub-MIC levels of cationic peptides; assay type: cell-based; conditions: for MIC of antibiotic: No peptide
Protocol: (§1) The minimum inhibitory concentrations of (MIC) of CEME, CEMA and melittin were determined for a number of different bacteria (Table 2). Briefly, cells were grown overnight at 37° C. in LB-S (Luria broth without any salt supplement) and diluted one in 10,000 in the same medium to give concentrations of about 10^4 to 10^5 CFU/ml. The broth dilutions were set up in a 96 well microtiter plate by putting 200 μl of LB-S containing the initial concentration of antibiotic or compound in column 1 and 100 μl of the same medium in columns 2-12. The compounds were diluted by taking 100 μl of broth from column 1 and mixing it with column 2, resulting in a one in two dilution. This was continued to column 10. Finally, 10 μl of bacteria were pipetted into columns 1-11, and the plates incubated overnight at 37° C. The next day the plates were scored for growth in the wells, and the MIC determined.
The ability of the cationic peptides to work synergystically was examined by determining the MIC values for some commonly used antibiotics in the presence of sub-MIC levels of cationic peptides (Table 4). […] This may be due to the high membrane permeabilizing activity of CEMA (see below). However, the peptides did lower the MIC of polymyxin B, possibly due to the fact that they are all taken up by the same pathway and are therefore aiding each other's uptake. Of interest is the influence that melittin has on the MIC of polymyxin B, given the […] membrane permeabilizing activity of melittin.

E. cloacae = assay type: cell-based; conditions: strain 218S, Parent of 218R1
Protocol: as §1

E. coli = assay type: cell-based; conditions: strain UB1005, Parent of DC2
Protocol: as §1

S. typhimurium = assay type: cell-based; conditions: C590 versus C587
Protocol: as §1

[2] = tested on: P. aeruginosa H309 Whole Cells; assay type: binding; conditions: 5 mM HEPES pH 7.2, 5 mM KCN; average of at least three trials; read-out: I50 (DPx displacement from whole cells)
E. cloacae 218R1 = assay type: cell-based; conditions: 10 μM NPN; fluorescence increase
Source text: (§2) The second assay determined membrane permeability by the ability of 1-N-phenylnaphthylamine (NPN), a small fluorescent probe, to insert itself into the membrane. Normally, very little NPN can penetrate the outer membrane, but in the presence of a membrane permeabilizer it can insert into the hydrophobic membrane resulting in an increase in fluorescence (FIGS. 7 and 8). This N-phenylnaphthylamine uptake assay was previously described by Loh, et al., Antimicrobial Agents and Chemo., 26:546, 1984. Cells were prepared exactly the same as for the lysozyme lysis assay. 1-N-phenylnaphthylamine (NPN) was dissolved in acetone at a concentration of 500 μM. NPN fluorescence was measured in a Perkin-Elmer 650-10S fluorescent spectrophotometer using excitation and emission wavelengths set to 350 nm and 420 nm respectively, with slit widths of 5 nm. The assay was standardized by adding 20 μl of NPN (final concentration of 10 μM) and 10 μl of 0.64 mg/ml of polymyxin B (final concentration of 6.4 μg/ml) into 1 ml of cells, and adjusting the resulting fluorescence to read 90% deflection (90 arbitrary units). Various compounds were tested by adding 10 μl of different concentrations to a cuvette containing 1 ml of cells and 10 μM NPN. Permeabilizing activity was designated as the total fluorescence minus the fluorescence due to NPN alone. Following the fluorescence measurement, the OD600 of the cells was taken to ensure no significant cell lysis had occurred.

P. AERUGINOSA H309 [3] = assay type: cell-based; conditions: 10 μM NPN; fluorescence increase
Source text: as §2

E. coli strain DC2 = test: Acid-urea gel overlay antibacterial activity; assay type: cell-based; conditions: 15% acid-urea gel overlaid with agar containing ≈10^5 cells, overnight at 37° C.
Protocol: A sample of the partially purified CEME protein was electrophoresed on a 15% acid-urea gel, which separates proteins based on charge and mass (Panyim and Chalkey, Arch. Biochem Biophys., 130:337, 1969). The pH of the buffer is acidic (≈pH 5.0) and the polarity is reversed such that proteins migrate to the cathode. Therefore, the small cationic peptides run relatively quickly through the gel and thus can be easily identified. Antibacterial activity was tested as previously described (Hultmark, Eur. J. Biochem., 106:7, 1980). The gel was incubated in Mueller Hinton broth+0.2M NaPO4 pH 7.4 for 1 hr. It was overlaid with mls of the same media containing 0.6% agar and≈10^5 E. coli strain DC2, and then again with ml of the same media containing only 0.6% agar. […] Melittin is used as a positive control due to its antibacterial activity and similarity in size and PI values.

P. AERUGINOSA H309 [4] = test: Lysozyme lysis assay (outer membrane permeabilization); assay type: cell-based
Protocol: Membrane permeabilization by polycationic compounds was measured in two different assays. The first assay measured membrane disruption by the ability of lysozyme to reach the periplasm and cause cell lysis. […] The uptake of lysozyme into whole cells due to membrane permeabilization by various compounds was previously described in Hancock, et al., Antimicrobial Agents and Chemo., 19:777, 1981. Overnight cultures of P. aeruginosa H309 or E. cloacae 218R1 grown in LB-S were diluted 1 in 50 in fresh medium and grown to an OD600 =0.5-0.6. The cells were harvested in a Silencer H-103N clinical centrifuge at 1800 g for 10 min, washed once with one volume of assay buffer (5 mM HEPES pH 7.2, 5 mM KCN), and resuspended in the same buffer to an OD600 of 0.5. Assays consisted of 600 μl of cells with 50 μg/ml of chicken egg white lysozyme and varying concentrations of cationic compounds. Cell lysis was measured as a decrease in the OD600 in a Perkin-Elmer dual beam spectrophotometer. Parallel experiments performed without lysozyme enabled the measurement of the lytic activity of the compounds themselves. To test whether or not permeability to lysozyme could be inhibited by divalent cations, various concentrations of MgCl2 were added to the assay after the addition of lysozyme and before the addition of the test compound.

P. aeruginosa H103 LPS = test: Dansyl polymyxin (DPx) displacement from purified LPS; assay type: binding; conditions: on a μM basis
Protocol: In this assay, DPx was incubated with LPS to saturate the binding sites and then, while polycationic compounds are titrated into the reaction, displacement of the DPx was monitored by the decrease in fluorescence (FIG. 9).
The method of Moore, et al., (Antimicrobial Agents and Chemo., 29:496, 1987), was used to test how much DPx was needed to saturate the binding sties on LPS. Briefly, 5 μl samples of 100 μM DPx were titrated sequentially into 1 ml of 3 μg/ml of LPS until a maximum fluorescence was reached. The fluorescence was measured in a Perkin-Elmer 650-10S fluorescence spectrophotometer with an excitation wavelength of 340 nm and an emission wavelength of 485 nm using slit widths of 5 nm. […] For the binding inhibition assays (Moore, et al., Antimicrobial Agents and Chemo., 29:496, 1987), 2.5 μM DPx was added to 3 μg/ml of H103 LPS in 5 mM HEPES pH 7.2. The test compounds were added 5 μl at a time and the decrease in fluorescence due to displacement of the DPx from the LPS was recorded.

P. AERUGINOSA H309 [5] = assay type: cell-based; conditions: +80 mM Na+
Protocol: as §1, with “Briefly,” for “The minimum inhibitory concentrations of (MIC) of CEME, CEMA and melittin were determined for a number of different bacteria (Table 2). Briefly,”

CN(C)[C@@H]1C(O)=C(C(N)=O)C(=O)[C@@]2(O)C(O)=C3C(=O)c4c(O)cccc4[C@@](C)(O)[C@H]3C[C@@H]12 [Tetracycline]
MIC of antibiotic in the presence of CEMA ([1]; CEMA 0.7 μg/ml): 8 µg/mL | MIC of antibiotic in the presence of CEMA ([1]; CEMA 1.4 μg/ml): 4 µg/mL | MIC of antibiotic in the presence of CEME ([1]; CEME 0.6 μg/ml): 8 µg/mL | MIC of antibiotic in the presence of CEME ([1]; CEME 1.2 μg/ml): 8 µg/mL | MIC of antibiotic in the presence of Melittin ([1]; Melittin 2 μg/ml): 8 µg/mL | MIC of antibiotic in the presence of Melittin ([1]; Melittin 4 μg/ml): 8 µg/mL | MIC of antibiotic [1]: 8 µg/mL

C[C@@H](O)[C@H]1C(=O)N2C(C(=O)O)=C(SCCN=CN)C[C@H]12 [Imipenem]
MIC of antibiotic in the presence of CEMA ([1]; CEMA 0.7 μg/ml): 4 µg/mL | MIC of antibiotic in the presence of CEMA ([1]; CEMA 1.4 μg/ml): 2 µg/mL | MIC of antibiotic in the presence of CEME ([1]; CEME 0.6 μg/ml): 4 µg/mL | MIC of antibiotic in the presence of CEME ([1]; CEME 1.2 μg/ml): 4 µg/mL | MIC of antibiotic in the presence of Melittin ([1]; Melittin 2 μg/ml): 4 µg/mL | MIC of antibiotic in the presence of Melittin ([1]; Melittin 4 μg/ml): 4 µg/mL | MIC of antibiotic [1]: 4 µg/mL

gentamicin
MIC (E. cloacae): 0.5 µg/mL | MIC (E. coli): 1 µg/mL | Sensitivity of defensin sensitive strain C590 relative to parent (MIC change) (S. typhimurium): two-fold more sensitive | IC50 [2]: 39.1 ± 9.67 µM

polymyxin B
MIC (E. cloacae): 0.5 µg/mL | MIC (E. coli): 0.5 µg/mL | Sensitivity of defensin sensitive strain C590 relative to parent (MIC change) (S. typhimurium): four-fold more sensitive | MIC of antibiotic in the presence of CEMA ([1]; CEMA 0.7 μg/ml): 0.5 µg/mL | MIC of antibiotic in the presence of CEMA ([1]; CEMA 1.4 μg/ml): 0.12 µg/mL | MIC of antibiotic in the presence of CEME ([1]; CEME 0.6 μg/ml): 0.5 µg/mL | MIC of antibiotic in the presence of CEME ([1]; CEME 1.2 μg/ml): 0.25 µg/mL | MIC of antibiotic in the presence of Melittin ([1]; Melittin 2 μg/ml): 0.5 µg/mL | MIC of antibiotic in the presence of Melittin ([1]; Melittin 4 μg/ml): 0.06 µg/mL | MIC of antibiotic [1]: 1 µg/mL | Activity in opening up the membrane to NPN (E. cloacae 218R1): equally active | Activity in opening up the membrane to NPN (P. AERUGINOSA H309 [3]): equally active | IC50 [2]: 2.04 ± 0.65 µM

CC[C@H](C)[C@H](NC(=O)CN)C(=O)NCC(=O)N[C@@H](C)C(=O)N[C@H](C(=O)N[C@@H](CC(C)C)C(=O)N[C@@H](CCCCN)C(=O)N[C@H](C(=O)N[C@@H](CC(C)C)C(=O)N[C@H](C(=O)N[C@H](C(=O)NCC(=O)N[C@@H](CC(C)C)C(=O)N1CCC[C@H]1C(=O)N[C@@H](C)C(=O)N[C@@H](CC(C)C)C(=O)N[C@H](C(=O)N[C@@H](CO)C(=O)N[C@@H](Cc1c[nH]c2ccccc12)C(=O)N[C@H](C(=O)N[C@@H](CCCCN)C(=O)N[C@@H](CCCNC(=N)N)C(=O)N[C@@H](CCCCN)C(=O)N[C@@H](CCCNC(=N)N)C(=O)N[C@@H](CCC(N)=O)C(=O)N[C@@H](CCC(N)=O)C(N)=O)[C@@H](C)CC)[C@@H](C)CC)[C@@H](C)O)[C@@H](C)O)C(C)C)C(C)C [Melittin, melittin]
Sensitivity of defensin sensitive strain C590 relative to parent (MIC change) (S. typhimurium): two-fold more sensitive | Antibacterial activity in overlaid gel (E. coli strain DC2): zones of clearing | Permeabilization of the outer membrane to lysozyme, compared with polymyxin B (P. AERUGINOSA H309 [4]; 50 μg/ml lysozyme, decrease in OD600): did not appear to be a good permeabilizer | Cell lysis in the absence of lysozyme (P. AERUGINOSA H309 [4]; increased concentrations of peptide): cell lysis in the absence of lysozyme occurred | Permeabilizer activity relative to gentamicin (P. AERUGINOSA H309 [4]; lysozyme lysis assay): 5- to 10 fold | Activity in opening up the membrane to NPN (P. AERUGINOSA H309 [3]): less active | Affinity for LPS compared with polymyxin B (P. aeruginosa H103 LPS): slightly lower affinities

CC(C)(O/N=C(\C(=O)N[C@@H]1C(=O)N2C(C(=O)[O-])=C(C[n+]3ccccc3)CS[C@H]12)c1csc(N)n1)C(=O)O [Ceftazidime, ceftazidime]
Sensitivity of defensin sensitive strain C590 relative to parent (MIC change) (S. typhimurium): unchanged | MIC (P. AERUGINOSA H309 [5]): 2 µg/mL (≈ 3.66 µM) | MIC of antibiotic in the presence of CEMA ([1]; CEMA 0.7 μg/ml): 2 µg/mL | MIC of antibiotic in the presence of CEMA ([1]; CEMA 1.4 μg/ml): 2 µg/mL | MIC of antibiotic in the presence of CEME ([1]; CEME 0.6 μg/ml): 4 µg/mL | MIC of antibiotic in the presence of CEME ([1]; CEME 1.2 μg/ml): 4 µg/mL | MIC of antibiotic in the presence of Melittin ([1]; Melittin 2 μg/ml): 4 µg/mL | MIC of antibiotic in the presence of Melittin ([1]; Melittin 4 μg/ml): 2 µg/mL | MIC of antibiotic [1]: 4 µg/mL
